Experiments:
[1] = tested on: smallflower umbrella sedge; experiment: Test C flooded paddy test; type: in vivo, Cyperus difformis
ducksalad = experiment: Test C flooded paddy test; type: in vivo, Heteranthera limosa
Surinam grass = experiment: Test C pre-/postemergence herbicide test; type: in vivo, Urochloa decumbens; settings: for Plant response rating (0 = no effect, 100 = complete control), Surinam Grass: 125 g ai/ha
Outline: (§1)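 Pre/post spray; non-phytotoxic solvent + surfactant. Post-timing 1–4 leaves, 2–18 cm. Read-out: visual % control vs untreated, day 12–14, greenhouse.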

woolly cupgrass = experiment: Test C pre-/postemergence herbicide test; type: in vivo, Eriochloa villosa; settings: for Plant response rating (0 = no effect, 100 = complete control), Cupgrass, Woolly: 125 g ai/ha
Outline: as §1

[2] = tested on: common (oilseed) sunflower; experiment: Test C pre-/postemergence herbicide test; type: in vivo, Helianthus annuus; settings: for Plant response rating (0 = no effect, 100 = complete control), Sunflower: 125 g ai/ha
Outline: as §1

yellow nutsedge = experiment: Test C pre-/postemergence herbicide test; type: in vivo, Cyperus esculentus; settings: for Plant response rating (0 = no effect, 100 = complete control), Nutsedge, Yellow: 125 g ai/ha
Outline: as §1

giant foxtail = experiment: Test C pre-/postemergence herbicide test; type: in vivo, Setaria faberi; settings: for Plant response rating (0 = no effect, 100 = complete control), Foxtail, Giant: 125 g ai/ha
Outline: as §1

corn = experiment: Test C pre-/postemergence herbicide test; type: in vivo, Zea mays; settings: for Plant response rating (0 = no effect, 100 = complete control), Corn: 125 g ai/ha
Outline: as §1

lambsquarters = experiment: Test C pre-/postemergence herbicide test; type: in vivo, Chenopodium album; settings: for Plant response rating (0 = no effect, 100 = complete control), Lambsquarters: 125 g ai/ha
Outline: as §1

rice = experiment: Test C flooded paddy test; type: in vivo, Oryza sativa
Outline: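 Postemergence sprays applied to plants 2 to 18 cm tall (1- to 4-leaf stage); paddy species grown to 2-leaf stage under flooding. After 12 to 14 days in greenhouse, visual rating versus untreated controls on 0–100 scale (0 no effect, 100 complete control).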

morningglory = experiment: Test C pre-/postemergence herbicide test; type: in vivo, Ipomoea coccinea; design: key to Plant response rating, Morningglory: 0 = no effect, 100 = complete control; settings: for Plant response rating (0 = no effect, 100 = complete control), Morningglory: 125 g ai/ha
Outline: as §1

[3] = 125 g ai/ha, scale 0 to 100 (0 no effect, 100 complete control)
[4] = 250 g ai/ha, scale of 0 to 100, 0 is no effect, 100 is complete control
[5] = 500 g ai/ha, visual rating after 12 to 14 days, scale 0 to 100 (0 no effect, 100 complete control)
[6] = 62 g ai/ha, preemergence, scale 0 to 100
[7] = 250 g ai/ha, scale 0-100, preemergence
[8] = 500 g ai/ha, scale 0 to 100 (0 no effect, 100 complete control), visual, 12 to 14 days, preemergence

CCn1nc2c(c1C(=O)Nc1cc(C(=O)N(C)C)ccc1F)CCC2(C)C [Compound 352, N-[5-[(dimethylamino)carbonyl]-2-fluorophenyl]-2-ethyl-2,4,5,6-tetrahydro-6,6-dimethyl-3-cyclopentapyrazolecarboxamide]
pest or weed control at 62 g/ha ([1]; Cyperus difformis, 62 g ai/ha, scale 0 to 100, read-out: Sedge, Umbrella plant response rating): 50% | pest or weed control at 125 g/ha ([1]; Cyperus difformis, 125 g ai/ha, scale 0 to 100 (0 no effect, 100 complete control), read-out: Sedge, Umbrella plant response rating): 75% | pest or weed control at 250 g/ha ([1]; Cyperus difformis, 250 g ai/ha, scale of 0 to 100, 0 is no effect, 100 is complete control, read-out: Sedge, Umbrella plant response rating): 90% | pest or weed control at 500 g/ha ([1]; Cyperus difformis, 500 g ai/ha, visual rating after 12 to 14 days, scale 0 to 100 (0 no effect, 100 complete control), read-out: Plant response rating, Sedge, Umbrella): 95% | pest or weed control at 62 g/ha (ducksalad; Heteranthera limosa, 62 g ai/ha, scale 0 to 100, read-out: Ducksalad plant response rating): 20% | pest or weed control at 125 g/ha (ducksalad; Heteranthera limosa, 125 g ai/ha, scale 0 to 100 (0 no effect, 100 complete control), read-out: Ducksalad plant response rating): 65% | pest or weed control at 250 g/ha (ducksalad; Heteranthera limosa, 250 g ai/ha, scale of 0 to 100, 0 is no effect, 100 is complete control, read-out: Ducksalad plant response rating): 85% | pest or weed control at 500 g/ha (ducksalad; Heteranthera limosa, 500 g ai/ha, visual rating after 12 to 14 days, scale 0 to 100 (0 no effect, 100 complete control), read-out: Plant response rating, Ducksalad): 95% | Plant response rating (0 = no effect, 100 = complete control), Surinam Grass (Surinam grass; preemergence): 50 | pest or weed control at 62 g/ha (Surinam grass; Urochloa decumbens, pre-emergence, 312 h, 62 g ai/ha, preemergence, scale 0 to 100, read-out: Plant response rating, Surinam Grass): 10% | pest or weed control at 250 g/ha (Surinam grass; Urochloa decumbens, pre-emergence, 312 h, 250 g ai/ha, scale 0-100, read-out: Plant response rating, Surinam Grass): 100% | pest or weed control at 500 g/ha (Surinam grass; Urochloa decumbens, pre-emergence, 312 h, 500 g ai/ha, scale 0 to 100 (0 no effect, 100 complete control), visual, 12 to 14 days, read-out: Plant response rating, Surinam Grass): 100% | Plant response rating (0 = no effect, 100 = complete control), Cupgrass, Woolly (woolly cupgrass; preemergence): 50 | pest or weed control at 62 g/ha (woolly cupgrass; Eriochloa villosa, pre-emergence, 312 h, 62 g ai/ha, preemergence, scale 0 to 100, read-out: Plant response rating, Cupgrass, Woolly): 5% | pest or weed control at 250 g/ha (woolly cupgrass; Eriochloa villosa, pre-emergence, 312 h, 250 g ai/ha, scale 0-100, read-out: Plant response rating, Cupgrass, Woolly): 60% | pest or weed control at 500 g/ha (woolly cupgrass; Eriochloa villosa, pre-emergence, 312 h, 500 g ai/ha, scale 0 to 100 (0 no effect, 100 complete control), visual, 12 to 14 days, read-out: Plant response rating, Cupgrass, Woolly): 85% | Plant response rating (0 = no effect, 100 = complete control), Sunflower ([2]; preemergence): 0 | pest or weed control at 62 g/ha ([2]; Helianthus annuus, pre-emergence, 62 g ai/ha, preemergence, scale 0 to 100, read-out: Plant response rating, Sunflower): 0% | pest or weed control at 250 g/ha ([2]; Helianthus annuus, pre-emergence, 250 g ai/ha, scale 0-100, read-out: Plant response rating, Sunflower): 0% | pest or weed control at 500 g/ha ([2]; Helianthus annuus, pre-emergence, 500 g ai/ha, scale 0 to 100 (0 no effect, 100 complete control), visual, 12 to 14 days, read-out: Plant response rating, Sunflower): 0% | Plant response rating (0 = no effect, 100 = complete control), Nutsedge, Yellow (yellow nutsedge; preemergence): 0 | pest or weed control at 62 g/ha (yellow nutsedge; Cyperus, pre-emergence, 62 g ai/ha, preemergence, scale 0 to 100, read-out: Plant response rating, Nutsedge, Yellow): 0% | pest or weed control at 250 g/ha (yellow nutsedge; Cyperus, pre-emergence, 250 g ai/ha, scale 0-100, read-out: Plant response rating, Nutsedge, Yellow): 10% | pest or weed control at 500 g/ha (yellow nutsedge; Cyperus, pre-emergence, 500 g ai/ha, scale 0 to 100 (0 no effect, 100 complete control), visual, 12 to 14 days, read-out: Plant response rating, Nutsedge, Yellow): 50% | Plant response rating (0 = no effect, 100 = complete control), Foxtail, Giant (giant foxtail; preemergence): 60 | pest or weed control at 62 g/ha (giant foxtail; Setaria faberi, pre-emergence, 312 h, 62 g ai/ha, preemergence, scale 0 to 100, read-out: Plant response rating, Foxtail, Giant): 5% | pest or weed control at 250 g/ha (giant foxtail; Setaria faberi, pre-emergence, 312 h, 250 g ai/ha, scale 0-100, read-out: Plant response rating, Foxtail, Giant): 100% | pest or weed control at 500 g/ha (giant foxtail; Setaria faberi, pre-emergence, 312 h, 500 g ai/ha, scale 0 to 100 (0 no effect, 100 complete control), visual, 12 to 14 days, read-out: Plant response rating, Foxtail, Giant): 100% | Plant response rating (0 = no effect, 100 = complete control), Corn (corn; preemergence): 15 | Corn plant response rating (crop injury, 0 = no effect, 100 = complete kill) at 62 g/ha (corn; Zea mays, pre-emergence, 312 h, 62 g ai/ha, preemergence, scale 0 to 100): 0% | Corn plant response rating (crop injury, 0 = no effect, 100 = complete kill) at 250 g/ha (corn; Zea mays, pre-emergence, 312 h, 250 g ai/ha, scale 0-100): 30% | Corn plant response rating (crop injury, 0 = no effect, 100 = complete kill) at 500 g/ha (corn; Zea mays, pre-emergence, 312 h, 500 g ai/ha, scale 0 to 100 (0 no effect, 100 complete control), visual, 12 to 14 days): 50% | Plant response rating (0 = no effect, 100 = complete control), Lambsquarters (lambsquarters; preemergence): 100 | pest or weed control at 62 g/ha (lambsquarters; Chenopodium album, pre-emergence, 62 g ai/ha, preemergence, scale 0 to 100, read-out: Plant response rating, Lambsquarters): 85% | pest or weed control at 250 g/ha (lambsquarters; Chenopodium album, pre-emergence, 250 g ai/ha, scale 0-100, read-out: Plant response rating, Lambsquarters): 100% | pest or weed control at 500 g/ha (lambsquarters; Chenopodium album, pre-emergence, 500 g ai/ha, scale 0 to 100 (0 no effect, 100 complete control), visual, 12 to 14 days, read-out: Plant response rating, Lambsquarters): 100% | plant injury at 62 g/ha (rice; Oryza sativa, 62 g ai/ha, scale 0 to 100, read-out: Rice plant response rating): 20% | plant injury at 125 g/ha (rice; Oryza sativa, 125 g ai/ha, scale 0 to 100 (0 no effect, 100 complete control), read-out: Rice plant response rating): 45% | plant injury at 250 g/ha (rice; Oryza sativa, 250 g ai/ha, scale of 0 to 100, 0 is no effect, 100 is complete control, read-out: Rice plant response rating): 60% | plant injury at 500 g/ha (rice; Oryza sativa, 500 g ai/ha, visual rating after 12 to 14 days, scale 0 to 100 (0 no effect, 100 complete control), read-out: Plant response rating, Rice): 70% | Plant response rating (0 = no effect, 100 = complete control), Morningglory (morningglory; preemergence): 5 | pest or weed control at 62 g/ha (morningglory; Ipomoea, pre-emergence, 62 g ai/ha, preemergence, scale 0 to 100, read-out: Plant response rating, Morningglory): 5% | pest or weed control at 250 g/ha (morningglory; Ipomoea, pre-emergence, 250 g ai/ha, scale 0-100, read-out: Plant response rating, Morningglory): 40% | pest or weed control at 500 g/ha (morningglory; Ipomoea, pre-emergence, 500 g ai/ha, scale 0 to 100 (0 no effect, 100 complete control), visual, 12 to 14 days, read-out: Plant response rating, Morningglory): 60%

CCc1nn(C(C)(C)C)nc1C(=O)Nc1cccc(C(=S)N(C)C)c1 [Compound 395]
Sedge, Umbrella plant response rating ([1]; 62 g ai/ha, scale 0 to 100): 70 | Sedge, Umbrella plant response rating [1, 3]: 80 | Sedge, Umbrella plant response rating [1, 4]: 85 | Plant response rating, Sedge, Umbrella [1, 5]: 85 | Ducksalad plant response rating (ducksalad; 62 g ai/ha, scale 0 to 100): 15 | Ducksalad plant response rating (ducksalad; [3]): 20 | Ducksalad plant response rating (ducksalad; [4]): 55 | Plant response rating, Ducksalad (ducksalad; [5]): 55 | Plant response rating, Surinam Grass (Surinam grass; [6]): 95 | Plant response rating (0 = no effect, 100 = complete control), Surinam Grass (Surinam grass; preemergence): 100 | Plant response rating, Surinam Grass (Surinam grass; [7]): 100 | Plant response rating, Surinam Grass (Surinam grass; [8]): 100 | Plant response rating, Cupgrass, Woolly (woolly cupgrass; [6]): 85 | Plant response rating (0 = no effect, 100 = complete control), Cupgrass, Woolly (woolly cupgrass; preemergence): 95 | Plant response rating, Cupgrass, Woolly (woolly cupgrass; [7]): 100 | Plant response rating, Cupgrass, Woolly (woolly cupgrass; [8]): 100 | Plant response rating, Sunflower [2, 6]: 0 | Plant response rating (0 = no effect, 100 = complete control), Sunflower ([2]; preemergence): 0 | Plant response rating, Sunflower [2, 7]: 50 | Plant response rating, Sunflower [2, 8]: 55 | Plant response rating, Nutsedge, Yellow (yellow nutsedge; [6]): 15 | Plant response rating (0 = no effect, 100 = complete control), Nutsedge, Yellow (yellow nutsedge; preemergence): 55 | Plant response rating, Nutsedge, Yellow (yellow nutsedge; [7]): 80 | Plant response rating, Nutsedge, Yellow (yellow nutsedge; [8]): 90 | Plant response rating, Foxtail, Giant (giant foxtail; [6]): 95 | Plant response rating (0 = no effect, 100 = complete control), Foxtail, Giant (giant foxtail; preemergence): 100 | Plant response rating, Foxtail, Giant (giant foxtail; [7]): 100 | Plant response rating, Foxtail, Giant (giant foxtail; [8]): 100 | Plant response rating, Corn (corn; [6]): 0 | Plant response rating (0 = no effect, 100 = complete control), Corn (corn; preemergence): 45 | Plant response rating, Corn (corn; [7]): 85 | Plant response rating, Corn (corn; [8]): 90 | Plant response rating, Lambsquarters (lambsquarters; [6]): 100 | Plant response rating (0 = no effect, 100 = complete control), Lambsquarters (lambsquarters; preemergence): 100 | Plant response rating, Lambsquarters (lambsquarters; [7]): 100 | Plant response rating, Lambsquarters (lambsquarters; [8]): 100 | Rice plant response rating (rice; 62 g ai/ha, scale 0 to 100): 70 | Rice plant response rating (rice; [3]): 70 | Rice plant response rating (rice; [4]): 70 | Plant response rating, Rice (rice; [5]): 75 | Plant response rating, Morningglory (morningglory; [6]): 15 | Plant response rating (0 = no effect, 100 = complete control), Morningglory (morningglory; preemergence): 80 | Plant response rating, Morningglory (morningglory; [7]): 100 | Plant response rating, Morningglory (morningglory; [8]): 100

Source: patent US20060069132A1, “Azolecarboxamide herbicides” (priority 2004, published 2006)
